Data as given in patent US20220332700A1, “NOVEL APOPTOSIS SIGNAL-REGULATING KINASE 1 INHIBITORS” (MANKIND PHARMA LTD, priority 2019, published 2022).

Biological target: T1, recombinant ASK1 (Homo sapiens, UniProt Q99683)
T1 construct: purchased Carna Biosciences
Experiment: ASK1 Biochemical Assay (HTRF KinEASE-STK S3)
Settings: ATP 100 μM; read-out: Biochemical Assay IC50
Experimental: ASK1 biochemical assay was standardized using recombinant ASK1 (Carna Biosciences), substrate and detection reagents from Cisbio HRTF KinEASE-STK S3 kit. Enzyme concentration, ATP, biotinylated STK substrate and STK antibodies were titrated for enzyme assay. Assay was carried out in ASK1 kinase buffer, 10 mM MOPS pH-7, 10 mM Mg-acetate, 1 mM DTT, 0.025% NP40, 1.5% glycerol and 0.05% BSA. DMSO was used as vehicle control with a final concentration of 1%. A 5 ng of ASK1 enzyme was incubated with compound for 1 hour at 23° C. on a shaker at 100rpm. ATP and biotin substrate was added at a final concentration of 100 μM and 1 μM and incubated for 3 hours at 23° C. on a shaker at 100rpm. […] Delta F ratios were calculated from data obtained at excitation (337 nm) and emission wavelengths (665 nm and 620-10 nm). Substrate blank values was considered as negative control. Values from negative control was substrated from vehicle control and compound treated wells. Enzyme inhibition by compounds were calculated from vehicle controls, which represent uninterrupted enzyme's activity.

T1 sequence (Q99683 654-971 limits assumed): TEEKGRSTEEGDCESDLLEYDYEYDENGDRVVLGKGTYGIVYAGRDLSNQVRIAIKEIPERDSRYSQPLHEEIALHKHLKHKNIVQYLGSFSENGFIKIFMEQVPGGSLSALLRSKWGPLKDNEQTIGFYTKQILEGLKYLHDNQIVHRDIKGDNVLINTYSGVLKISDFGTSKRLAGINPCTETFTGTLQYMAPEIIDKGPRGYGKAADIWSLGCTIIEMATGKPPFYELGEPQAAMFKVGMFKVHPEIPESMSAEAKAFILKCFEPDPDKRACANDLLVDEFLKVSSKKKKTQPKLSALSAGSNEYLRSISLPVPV

| SMILES | IC50 [nM] |
| --- | --- |
| CC(C)n1cnnc1-c1cccc(N2CCN(C)C2=O)n1 [Example 1099, 1-(6-(4-isopropyl-4H-1,2,4-triazol-3-yl)pyridin-2-yl)-3-methylimidazolidin-2-one] | < 100 |
| Cc1cc(S(C)(=O)=O)ccc1N1CCN(c2cccc(-c3nncn3C(C)C)n2)C1=O [Example 1042, 1-(6-(4-isopropyl-4H-1,2,4-triazol-3-yl)pyridin-2-yl)-3-(2-methyl-4-(methylsulfonyl)phenyl)imidazolidin-2-one] | > 100 |
| CNC(=O)C1CN(c2ccc(N3CCN(c4cccc(-c5nncn5C(C)C)n4)C3=O)cn2)C1 [Example 1122, 1-(5-(3-(6-(4-isopropyl-4H-1,2,4-triazol-3-yl)pyridin-2-yl)-2-oxoimidazolidin-1-yl)pyridin-2-yl)-N-methylazetidine-3-carboxamide] | < 100 |
| CC(C)n1cnnc1-c1cccc(N2CCN(c3ccc4nc(NC5CC5)sc4c3)C2=O)n1 [Example 1046, N-cyclopropyl-6-(3-(6-(4-isopropyl-4H-1,2,4-triazol-3-yl)pyridin-2-yl)-2-oxoimidazolidin-1-yl)benzo[d]thiazol-2-aminium 2,2,2-trifluoroacetate] | > 100 |
| CC(C)n1cnnc1-c1cccc(N2CCN(c3ccc(N4[C@H](C)COC[C@H]4C)cc3)C2=O)n1 [Example 1086, 1-(6-(4-isopropyl-4H-1,2,4-triazol-3-yl)pyridin-2-yl)-3-(4-((3R,5R)-3,5-dimethylmorpholino)phenyl)imidazolidin-2-one] | < 100 |
| CC(C)n1cnnc1-c1cccc(N2CCN(c3cccc(-c4ccc(C(F)(F)F)cc4)c3)C2=O)n1 [Example 1017, 1-(6-(4-isopropyl-4H-1,2,4-triazol-3-yl)pyridin-2-yl)-3-(4′-(trifluoromethyl)-[1,1′-biphenyl]-3-yl)imidazolidin-2-one] | > 1000 |
| CC(C)n1cnnc1-c1cccc(N2CCN(c3cccc(-c4ccc(C#N)cc4)c3)C2=O)n1 [Example 1016, 3′-(3-(6-(4-isopropyl-4H-1,2,4-triazol-3-yl)pyridin-2-yl)-2-oxoimidazolidin-1-yl)-[1,1′-biphenyl]-4-carbonitrile] | > 1000 |
| CC(C)n1cnnc1-c1cccc(N2CCN(c3cccc(-c4cnn(C)c4)c3)C2=O)n1 [Example 1012, 1-(6-(4-isopropyl-4H-1,2,4-triazol-3-yl)pyridin-2-yl)-3-(3-(1-methyl-1H-pyrazol-4-yl)phenyl)imidazolidin-2-one] | < 1000 |
| CC(C)n1cnnc1-c1cccc(-n2ccn(-c3cc(-n4ccnc4)ncn3)c2=O)n1 [Example 1004, 1-(6-(1H-imidazol-1-yl)pyrimidin-4-yl)-3-(6-(4-isopropyl-4H-1,2,4-triazol-3-yl)pyridin-2-yl)-1H-imidazol-2(3H)-one] | > 1000 |
| CC(C)n1cnnc1-c1cccc(N2CCN(c3ccc(S(C)(=O)=O)cc3)C2=O)n1 [Example 1065, 1-(6-(4-isopropyl-4H-1,2,4-triazol-3-yl)pyridin-2-yl)-3-(4-(methylsulfonyl)phenyl)imidazolidin-2-one] | > 1000 |
| CC(C)n1cnnc1-c1cccc(N2CCN(c3ccc(C(F)(F)F)cc3)C2=O)n1 [Example 1033, 1-(4-(trifluoromethyl)phenyl)-3-(6-(4-isopropyl-4H-1,2,4-triazol-3-yl)pyridin-2-yl)imidazolidin-2-one] | > 100 |
| COc1cc(C)c(S(C)(=O)=O)cc1N1CCN(c2cccc(-c3nncn3C(C)C)n2)C1=O [Example 1031, 1-(6-(4-isopropyl-4H-1,2,4-triazol-3-yl)pyridin-2-yl)-3-(2-methoxy-4-methyl-5-(methylsulfonyl)phenyl)imidazolidin-2-one] | > 1000 |
| CC(C)n1cnnc1-c1cccc(N2CCN(c3ccc(O)cc3)C2=O)n1 [Example 1030, 1-(4-hydroxyphenyl)-3-(6-(4-isopropyl-4H-1,2,4-triazol-3-yl)pyridin-2-yl)imidazolidin-2-one] | > 1000 |
| CC(C)n1cnnc1-c1cccc(N2CCN(c3cc(-n4ccnc4)ccn3)C2=O)n1 [Example 1003, 1-(4-(1H-imidazol-1-yl)pyridin-2-yl)-3-(6-(4-isopropyl-4H-1,2,4-triazol-3-yl)pyridin-2-yl)imidazolidin-2-one] | > 1000 |
| CC(C)n1cnnc1-c1ccc(N2CCN(c3ccc(S(C)(=O)=O)cc3)C2=O)nc1 [Example 1064, 1-(5-(4-isopropyl-4H-1,2,4-triazol-3-yl)pyridin-2-yl)-3-(4-(methylsulfonyl)phenyl)imidazolidin-2-one] | > 100 |

Next, values leading:

| IC50 [nM] | SMILES |
| --- | --- |
| < 100 | COCCCNC(=O)c1ccc(N2CCN(c3cccc(-c4nncn4C(C)C)n3)C2=O)cn1 [Example 1117, 5-(3-(6-(4-isopropyl-4H-1,2,4-triazol-3-yl)pyridin-2-yl)-2-oxoimidazolidin-1-yl)-N-(3-methoxypropyl)pyridine-2-carboxamide] |
| > 1000 | CC(C)n1cnnc1-c1cccc(N2CCN(c3cccc(-n4ccnc4)c3F)C2=O)n1 [Example 1008, 1-(2-fluoro-3-(1H-imidazol-1-yl)phenyl)-3-(6-(4-isopropyl-4H-1,2,4-triazol-3-yl)pyridin-2-yl)imidazolidin-2-one] |
| > 100 | CC(C)n1cnnc1-c1cccc(N2CCN(c3ccc(S(C)(=O)=O)c(N4CCCC4)c3)C2=O)n1 [Example 1058, 1-(6-(4-isopropyl-4H-1,2,4-triazol-3-yl)pyridin-2-yl)-3-(4-(methylsulfonyl)-3-(pyrrolidin-1-yl)phenyl)imidazolidin-2-one] |
| > 100 | CC(C)n1cnnc1-c1cccc(N2CCN(c3ccc(N4CCC(O)CC4)nc3)C2=O)n1 [Example 1072, 1-(6-(4-hydroxypiperidin-1-yl)pyridin-3-yl)-3-(6-(4-isopropyl-4H-1,2,4-triazol-3-yl)pyridin-2-yl)imidazolidin-2-one] |
| < 100 | CC(C)n1cnnc1-c1cccc(N2CCN(c3ccc(N4CCC(S(C)(=O)=O)CC4)nc3)C2=O)n1 [Example 1120, 1-(6-(4-isopropyl-4H-1,2,4-triazol-3-yl)pyridin-2-yl)-3-(6-(4-(methylsulfonyl)piperidin-1-yl)pyridin-3-yl)imidazolidin-2-one] |
| > 100 | COc1cc(C)c(-c2ccc(S(C)(=O)=O)cc2)cc1N1CCN(c2cccc(-c3nncn3C(C)C)n2)C1=O [Example 1026, 1-(6-(4-isopropyl-4H-1,2,4-triazol-3-yl)pyridin-2-yl)-3-(4-methoxy-6-methyl-4′-(methylsulfonyl)-[1,1′-biphenyl]-3-yl)imidazolidin-2-one] |
| < 100 | CC(c1ccc(N2CCOCC2)cc1)N1CCN(c2cccc(-c3nncn3C(C)C)n2)C1=O (stereo not drawn) [Example 1111, 1-(6-(4-isopropyl-4H-1,2,4-triazol-3-yl)pyridin-2-yl)-3-(1-(4-morpholinophenyl)ethyl)imidazolidin-2-one] |
| < 100 | CNC(=O)C1CCN(C(C)c2ccc(N3CCN(c4cccc(-c5nncn5C(C)C)n4)C3=O)cc2)CC1 (stereo not drawn) [Example 1127, 1-(1-(4-(3-(6-(4-isopropyl-4H-1,2,4-triazol-3-yl)pyridin-2-yl)-2-oxoimidazolidin-1-yl)phenyl)ethyl)-N-methylpiperidine-4-carboxamide] |
| < 100 | Cc1cc(N2CCN(c3cccc(-c4nncn4C(C)C)n3)C2=O)ccc1N1CCOCC1 [Example 1079, 1-(6-(4-isopropyl-4H-1,2,4-triazol-3-yl)pyridin-2-yl)-3-(3-methyl-4-morpholinophenyl)imidazolidin-2-one] |
